# Measurements reported in ChEMBL document CHEMBL5291721, “A preclinical secondary pharmacology resource illuminates target-adverse drug reaction associations of marketed drugs” (Nat Commun, 2023).
# Key:
# Thromboxane A2 receptor = target: T1, Thromboxane A2 receptor (Homo sapiens, UniProt P21731); assay type: functional, cell-based
# T1 sequence (P21731 whole entry): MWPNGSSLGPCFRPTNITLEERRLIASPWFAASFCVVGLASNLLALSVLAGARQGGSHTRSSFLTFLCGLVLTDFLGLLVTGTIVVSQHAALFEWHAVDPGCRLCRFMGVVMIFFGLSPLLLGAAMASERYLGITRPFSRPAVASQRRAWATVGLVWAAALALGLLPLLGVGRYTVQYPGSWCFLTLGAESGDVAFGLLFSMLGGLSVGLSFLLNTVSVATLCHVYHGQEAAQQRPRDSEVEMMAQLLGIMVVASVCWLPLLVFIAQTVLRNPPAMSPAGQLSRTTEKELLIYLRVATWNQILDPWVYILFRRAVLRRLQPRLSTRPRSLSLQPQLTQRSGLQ
# [1] = target: T2, 5-hydroxytryptamine receptor 1A (Homo sapiens, UniProt P08908)
# T2 sequence (P08908 whole entry): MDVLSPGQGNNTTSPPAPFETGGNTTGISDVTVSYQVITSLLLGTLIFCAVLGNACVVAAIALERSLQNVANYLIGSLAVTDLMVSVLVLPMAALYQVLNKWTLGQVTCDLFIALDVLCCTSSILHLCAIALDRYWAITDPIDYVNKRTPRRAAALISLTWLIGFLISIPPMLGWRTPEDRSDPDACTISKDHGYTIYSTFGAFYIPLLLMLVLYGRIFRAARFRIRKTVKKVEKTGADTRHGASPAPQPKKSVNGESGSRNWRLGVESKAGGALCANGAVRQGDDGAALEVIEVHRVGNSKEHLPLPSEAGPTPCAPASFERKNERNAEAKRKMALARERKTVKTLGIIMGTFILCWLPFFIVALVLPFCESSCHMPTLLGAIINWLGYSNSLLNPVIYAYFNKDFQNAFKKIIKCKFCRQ
# [2] = target: 3',5'-cyclic-AMP phosphodiesterase 4A (Homo sapiens, UniProt P27815); assay type: functional
# [3] = target: cGMP-inhibited 3',5'-cyclic phosphodiesterase 3A (Homo sapiens, UniProt Q14432); assay type: functional
# [4] = target: T3, Alpha-2A adrenergic receptor (Homo sapiens, UniProt P08913)
# T3 sequence (P08913 whole entry): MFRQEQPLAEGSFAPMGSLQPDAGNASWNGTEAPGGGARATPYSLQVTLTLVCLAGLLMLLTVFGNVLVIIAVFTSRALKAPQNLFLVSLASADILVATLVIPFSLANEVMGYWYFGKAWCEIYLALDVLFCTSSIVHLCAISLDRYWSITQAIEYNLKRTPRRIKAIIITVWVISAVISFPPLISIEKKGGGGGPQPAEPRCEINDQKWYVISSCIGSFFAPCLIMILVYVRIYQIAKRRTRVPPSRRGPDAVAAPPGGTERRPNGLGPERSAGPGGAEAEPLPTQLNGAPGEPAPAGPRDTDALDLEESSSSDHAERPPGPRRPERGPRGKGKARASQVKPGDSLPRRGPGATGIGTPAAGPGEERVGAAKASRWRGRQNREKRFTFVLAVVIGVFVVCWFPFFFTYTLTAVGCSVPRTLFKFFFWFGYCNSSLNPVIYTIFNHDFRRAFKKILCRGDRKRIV
# [5] = target: T4, Amine oxidase [flavin-containing] A (Homo sapiens, UniProt P21397); assay type: functional
# T4 sequence (P21397 whole entry): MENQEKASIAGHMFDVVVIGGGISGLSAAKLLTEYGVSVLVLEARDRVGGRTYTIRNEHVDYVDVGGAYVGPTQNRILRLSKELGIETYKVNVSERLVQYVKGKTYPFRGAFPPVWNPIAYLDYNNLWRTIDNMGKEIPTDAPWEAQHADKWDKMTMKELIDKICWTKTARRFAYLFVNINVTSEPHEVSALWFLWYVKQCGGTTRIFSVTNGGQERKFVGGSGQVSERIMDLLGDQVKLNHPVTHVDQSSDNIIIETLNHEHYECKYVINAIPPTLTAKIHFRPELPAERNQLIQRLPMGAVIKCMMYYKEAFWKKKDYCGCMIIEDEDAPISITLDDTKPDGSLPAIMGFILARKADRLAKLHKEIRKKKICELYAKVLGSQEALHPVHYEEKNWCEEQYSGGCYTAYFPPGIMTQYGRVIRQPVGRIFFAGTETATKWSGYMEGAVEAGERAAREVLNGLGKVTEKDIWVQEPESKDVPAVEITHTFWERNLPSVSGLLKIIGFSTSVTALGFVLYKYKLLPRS
# Substance-P receptor = Substance-P receptor (Homo sapiens, UniProt P25103)
# [6] = target: T5, Muscarinic acetylcholine receptor M2 (Homo sapiens, UniProt P08172)
# T5 sequence (P08172 whole entry): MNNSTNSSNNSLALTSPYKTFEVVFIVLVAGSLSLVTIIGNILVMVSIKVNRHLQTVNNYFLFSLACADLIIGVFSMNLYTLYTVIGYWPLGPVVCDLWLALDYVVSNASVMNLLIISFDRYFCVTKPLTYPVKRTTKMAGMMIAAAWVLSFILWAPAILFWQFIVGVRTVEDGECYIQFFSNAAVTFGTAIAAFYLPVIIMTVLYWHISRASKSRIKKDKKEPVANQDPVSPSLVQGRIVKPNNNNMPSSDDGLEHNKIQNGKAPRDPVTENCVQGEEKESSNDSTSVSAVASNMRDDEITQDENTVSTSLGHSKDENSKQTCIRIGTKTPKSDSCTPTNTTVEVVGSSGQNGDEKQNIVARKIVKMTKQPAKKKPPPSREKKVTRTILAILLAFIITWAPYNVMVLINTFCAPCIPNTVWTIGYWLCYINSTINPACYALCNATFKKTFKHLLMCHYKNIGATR
# D(1B) dopamine receptor = D(1B) dopamine receptor (Homo sapiens, UniProt P21918)
# Further: assay procedure not described here.
# Chain of 3',5'-cyclic-AMP phosphodiesterase 4A (P27815 whole entry): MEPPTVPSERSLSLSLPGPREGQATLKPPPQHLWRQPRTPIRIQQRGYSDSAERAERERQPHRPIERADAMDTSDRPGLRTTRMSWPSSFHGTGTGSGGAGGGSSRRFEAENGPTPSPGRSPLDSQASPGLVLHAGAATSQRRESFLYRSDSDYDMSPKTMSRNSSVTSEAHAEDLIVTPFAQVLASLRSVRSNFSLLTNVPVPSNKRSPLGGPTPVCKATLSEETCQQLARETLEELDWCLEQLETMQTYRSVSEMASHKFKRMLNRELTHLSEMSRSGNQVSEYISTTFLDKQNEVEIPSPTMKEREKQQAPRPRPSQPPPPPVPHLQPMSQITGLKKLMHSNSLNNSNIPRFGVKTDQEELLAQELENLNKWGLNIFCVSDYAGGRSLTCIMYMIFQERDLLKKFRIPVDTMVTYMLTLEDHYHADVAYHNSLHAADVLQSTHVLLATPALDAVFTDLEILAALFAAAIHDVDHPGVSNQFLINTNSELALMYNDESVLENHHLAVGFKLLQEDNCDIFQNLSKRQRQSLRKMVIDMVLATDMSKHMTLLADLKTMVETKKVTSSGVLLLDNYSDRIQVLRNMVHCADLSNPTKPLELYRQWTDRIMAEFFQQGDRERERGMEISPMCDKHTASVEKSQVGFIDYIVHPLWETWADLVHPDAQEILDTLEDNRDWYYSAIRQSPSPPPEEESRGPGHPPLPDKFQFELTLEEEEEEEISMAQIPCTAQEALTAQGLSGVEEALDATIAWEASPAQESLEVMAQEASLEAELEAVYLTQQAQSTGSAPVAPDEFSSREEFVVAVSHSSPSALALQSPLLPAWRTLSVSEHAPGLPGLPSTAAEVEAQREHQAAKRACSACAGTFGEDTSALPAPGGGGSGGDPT
# Chain of cGMP-inhibited 3',5'-cyclic phosphodiesterase 3A (Q14432 whole entry): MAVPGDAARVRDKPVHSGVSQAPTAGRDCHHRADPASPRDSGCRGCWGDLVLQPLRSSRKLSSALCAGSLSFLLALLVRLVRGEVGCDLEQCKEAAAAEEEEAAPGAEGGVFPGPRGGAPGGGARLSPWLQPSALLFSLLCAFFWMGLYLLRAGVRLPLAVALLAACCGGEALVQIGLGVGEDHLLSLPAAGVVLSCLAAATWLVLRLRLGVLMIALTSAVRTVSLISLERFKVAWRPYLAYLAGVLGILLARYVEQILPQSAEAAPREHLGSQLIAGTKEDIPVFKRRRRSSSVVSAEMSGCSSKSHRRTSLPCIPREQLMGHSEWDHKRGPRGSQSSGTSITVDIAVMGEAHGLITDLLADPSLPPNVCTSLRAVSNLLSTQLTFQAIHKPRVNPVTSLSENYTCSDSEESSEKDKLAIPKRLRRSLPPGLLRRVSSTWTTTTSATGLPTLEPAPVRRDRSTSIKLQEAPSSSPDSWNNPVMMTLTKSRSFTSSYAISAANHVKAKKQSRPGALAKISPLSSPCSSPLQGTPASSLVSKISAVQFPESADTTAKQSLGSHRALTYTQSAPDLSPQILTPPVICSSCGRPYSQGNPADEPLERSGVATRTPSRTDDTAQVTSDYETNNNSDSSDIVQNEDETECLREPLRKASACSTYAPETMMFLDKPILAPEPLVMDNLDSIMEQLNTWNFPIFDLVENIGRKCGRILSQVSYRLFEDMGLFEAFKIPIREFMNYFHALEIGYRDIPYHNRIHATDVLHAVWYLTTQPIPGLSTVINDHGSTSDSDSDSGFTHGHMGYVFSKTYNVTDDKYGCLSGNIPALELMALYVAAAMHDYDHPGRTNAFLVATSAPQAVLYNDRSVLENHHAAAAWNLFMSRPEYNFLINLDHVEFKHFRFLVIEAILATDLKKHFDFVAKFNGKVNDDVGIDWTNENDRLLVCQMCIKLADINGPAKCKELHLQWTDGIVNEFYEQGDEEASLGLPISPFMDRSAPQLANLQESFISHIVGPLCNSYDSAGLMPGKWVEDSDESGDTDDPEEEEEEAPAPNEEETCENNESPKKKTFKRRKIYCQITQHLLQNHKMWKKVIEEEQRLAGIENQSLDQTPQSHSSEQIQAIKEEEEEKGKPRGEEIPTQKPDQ
# Chain of Substance-P receptor (P25103 whole entry): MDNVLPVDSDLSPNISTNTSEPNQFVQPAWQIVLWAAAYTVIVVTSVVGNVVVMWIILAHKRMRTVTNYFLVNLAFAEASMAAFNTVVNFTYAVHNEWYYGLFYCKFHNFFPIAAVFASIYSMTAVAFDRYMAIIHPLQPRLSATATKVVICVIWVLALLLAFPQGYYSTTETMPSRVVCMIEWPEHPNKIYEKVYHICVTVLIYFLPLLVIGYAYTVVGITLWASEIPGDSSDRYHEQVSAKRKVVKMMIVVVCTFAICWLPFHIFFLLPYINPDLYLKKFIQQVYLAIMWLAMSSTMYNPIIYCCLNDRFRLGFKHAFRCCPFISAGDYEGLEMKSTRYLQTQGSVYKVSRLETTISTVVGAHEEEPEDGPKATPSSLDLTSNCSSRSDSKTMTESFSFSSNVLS
# Chain of D(1B) dopamine receptor (P21918 whole entry): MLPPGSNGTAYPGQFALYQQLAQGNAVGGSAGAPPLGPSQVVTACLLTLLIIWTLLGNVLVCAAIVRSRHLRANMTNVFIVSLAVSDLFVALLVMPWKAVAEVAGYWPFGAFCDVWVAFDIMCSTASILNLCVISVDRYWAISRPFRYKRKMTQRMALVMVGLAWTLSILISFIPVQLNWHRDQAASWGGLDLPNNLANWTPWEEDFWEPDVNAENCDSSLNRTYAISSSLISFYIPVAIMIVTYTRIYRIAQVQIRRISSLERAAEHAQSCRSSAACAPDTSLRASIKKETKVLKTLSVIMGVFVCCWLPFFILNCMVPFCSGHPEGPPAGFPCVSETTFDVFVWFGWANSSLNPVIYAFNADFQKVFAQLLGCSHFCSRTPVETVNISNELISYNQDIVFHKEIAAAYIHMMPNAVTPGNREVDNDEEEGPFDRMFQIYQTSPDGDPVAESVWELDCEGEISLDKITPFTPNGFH
Compound,AC50 (Substance-P receptor) [µM],AC50 [6] [µM],AC50 (D(1B) dopamine receptor) [µM],other results
COLISTIN,,,,AC50 (Thromboxane A2 receptor): > 30 µM; AC50 [1]: > 30 µM; AC50 [2]: 12 µM; AC50 [3]: > 30 µM; AC50 [4]: > 30 µM; AC50 [5]: > 30 µM
[H]/N=C(/N)N[C@H]1[C@H](O)[C@@H](O)[C@H](O[C@@H]2O[C@@H](C)[C@](O)(C=O)[C@H]2O[C@@H]2O[C@@H](CO)[C@H](O)[C@@H](O)[C@@H]2NC)[C@@H](N/C(N)=N\[H])[C@@H]1O [STREPTOMYCIN],> 10,,,
N[C@H](Cc1cc(I)c(Oc2cc(I)c(O)c(I)c2)c(I)c1)C(=O)O [DEXTROTHYROXINE],,> 10,,
N#C[C@@H]1CCCN1C(=O)CNC12CC3CC(CC(O)(C3)C1)C2 [VILDAGLIPTIN],> 10,> 10,> 10,
NCCCC(O)(P(=O)(O)O)P(=O)(O)O [ALENDRONIC ACID],> 10,,,AC50 (Thromboxane A2 receptor): > 30 µM; AC50 [1]: > 30 µM; AC50 [2]: > 30 µM; AC50 [3]: > 30 µM; AC50 [4]: > 30 µM; AC50 [5]: > 30 µM
CC(C)CC(N(C)C)C1(c2ccc(Cl)cc2)CCC1 (stereo not drawn) [SIBUTRAMINE],> 10,> 10,,
CC(CCc1ccccc1)NC(C)C(O)c1ccc(O)cc1 (stereo not drawn) [NYLIDRIN],> 10,> 10,> 10,
CC#CCn1c(N2CCC[C@@H](N)C2)nc2c1c(=O)n(Cc1nc(C)c3ccccc3n1)c(=O)n2C [LINAGLIPTIN],,> 10,,
O=C1Nc2ccc(Cl)cc2C(c2ccccc2)=NC1O (stereo not drawn) [OXAZEPAM],> 10,> 10,> 10,
COC1=C(OC)C(=O)C(CCCCCCCCCCO)=C(C)C1=O [IDEBENONE],> 10,> 10,> 10,
CCCC(C)(COC(N)=O)COC(=O)NC(C)C (stereo not drawn) [CARISOPRODOL],> 10,> 10,,
C[n+]1ccccc1/C=N/O [PRALIDOXIME],,,,AC50 (Thromboxane A2 receptor): > 30 µM; AC50 [1]: > 30 µM; AC50 [2]: > 30 µM; AC50 [3]: > 30 µM; AC50 [4]: > 30 µM; AC50 [5]: > 30 µM
CC(=O)OCC(CCn1cnc2cnc(N)nc21)COC(C)=O [FAMCICLOVIR],> 10,> 10,,
O=C1CN=C(c2ccccc2)c2cc(Cl)ccc2N1 [NORDAZEPAM],> 10,> 10,> 10,
